Patent US20240173432A1, “Compositions and Methods for Treatment of Myotonic Dystrophy Type 1 with CRISPR/SluCas9” (Vertex Pharmaceuticals Incorporated, priority 2021, published 2024)

Columns and labels:
[1] = system: CUG foci in primary DM1 patient myoblasts; assay: Single-cut screening: FISH staining of CUG RNA foci; type: cell-based, human; settings: single sgRNA, primary DM1 patient myoblasts; for % of CUG foci free nuclei (DNA-PKi): DNA-PKi treated
Outline: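 CD56-purified primary DM1 patient myoblasts nucleofected with SluCas9:sgRNA RNP (30:90 pmol, single-cut), then DMSO or 3 μM DNA-PK inhibitor for 48 h. At 72 h post-nucleofection, cells fixed and stained for CUG foci with Cy3-PNA(CAG)5 probe (1 ng/μL, 80 °C), co-stained for MBNL1 and Hoechst, imaged by high-content confocal microscopy.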

[2] = system: 3′ UTR of the human DMPK gene; assay: Single-cut screening: indel editing efficiency by Sanger sequencing and ICE analysis in primary DM1 patient myoblasts; type: cell-based; settings: vehicle-treated samples; for Indel efficiency: single SluCas9 sgRNA RNP in primary DM1 patient myoblasts, Sanger sequencing and ICE analysis; for indel efficiency (Sanger sequencing and ICE analysis): single-cut, SluCas9 RNP, 72 hrs post nucleofection, wild-type allele
Outline: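 Indels were estimated by ICE from Sanger chromatograms of PCR amplicons covering the DMPK 3′ UTR wild-type allele, using only vehicle-treated samples; sgRNAs with R2<0.9 are flagged. Samples came from primary DM1 patient myoblasts (2 × 10^5) harvested 72 h after nucleofection with 30 pmol SluCas9 and 90 pmol single sgRNA RNP.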

[3] = system: CAG foci in primary DM1 patient myoblasts; assay: Single-cut screening: CAG foci staining; type: cell-based, human; settings: single sgRNA; for % of CAG foci positive nuclei (DNA-PKi): DNA-PKi treated
Outline: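 Primary DM1 patient myoblasts were PFA-fixed and hybridized with […] (1 ng/μL, 15 min at 80° C) in 30% formamide/2×SSC, followed by anti-MBNL1 immunostaining and Hoechst counterstain. CAG RNA foci were quantified by high-content confocal imaging after single-cut SuCas9 sgRNA editing.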

CCTGTAGCCTGTCAGCGAGTCG (listed as DNA, chemistry not fully specified) [SluD68]
% of CUG foci free nuclei (DNA-PKi) [1]: 25.13% | % of CUG foci free nuclei (Vehicle) [1]: 12.88% | Indel efficiency [2]: 72% | indel efficiency (Sanger sequencing and ICE analysis) [2]: high editing IN4DEL efficiency | % of CAG foci positive nuclei (DNA-PKi) [3]: 1.94% | % of CAG foci positive nuclei (Vehicle) [3]: 2.3%

GAGGGCCTTTTATTCGCGAGGG (guide RNA; chemistry not fully specified) [SluD97]
% of CUG foci free nuclei (DNA-PKi) [1]: 39.95% | % of CUG foci free nuclei (Vehicle) [1]: 16.07% | Indel efficiency [2]: 11% | % of CAG foci positive nuclei (DNA-PKi) [3]: 2.01% | % of CAG foci positive nuclei (Vehicle) [3]: 1.19%

CACTCAGTCTTCCAACGGGGCC (guide RNA; chemistry not fully specified) [SluU07]
% of CUG foci free nuclei (DNA-PKi) [1]: 51.08% | % of CUG foci free nuclei (Vehicle) [1]: 26.22% | Indel efficiency [2]: 57% | % of CAG foci positive nuclei (DNA-PKi) [3]: 1.27% | % of CAG foci positive nuclei (Vehicle) [3]: 2.36%

CCCGTTGGAAGACTGAGTGCCC (listed as DNA, chemistry not fully specified) [SluU10]
% of CUG foci free nuclei (DNA-PKi) [1]: 72.18% | % of CUG foci free nuclei (Vehicle) [1]: 27.04% | Indel efficiency [2]: 81% | indel efficiency (Sanger sequencing and ICE analysis) [2]: high editing IN4DEL efficiency | % of CAG foci positive nuclei (DNA-PKi) [3]: 0.66% | % of CAG foci positive nuclei (Vehicle) [3]: 2%

TTATTCGCGAGGGTCGGGGGTG (guide RNA; chemistry not fully specified) [SluD89]
% of CUG foci free nuclei (DNA-PKi) [1]: 11.37% | % of CUG foci free nuclei (Vehicle) [1]: 10.23% | Indel efficiency [2]: 0% | % of CAG foci positive nuclei (DNA-PKi) [3]: 2.54% | % of CAG foci positive nuclei (Vehicle) [3]: 0.61%

TGCGCTGCTCTCGGAGCCCCAG (guide RNA; chemistry not fully specified) [SluD54]
% of CUG foci free nuclei (DNA-PKi) [1]: 33.12% | % of CUG foci free nuclei (Vehicle) [1]: 10.7% | Indel efficiency [2]: 26% | % of CAG foci positive nuclei (DNA-PKi) [3]: 2.85% | % of CAG foci positive nuclei (Vehicle) [3]: 2.11%

gcggccggcgaacggggcTCGA (guide RNA; as printed in the source, key not given here) [SluU60]
% of CUG foci free nuclei (DNA-PKi) [1]: 49.06% | % of CUG foci free nuclei (Vehicle) [1]: 22.98% | Indel efficiency [2]: 40% | % of CAG foci positive nuclei (DNA-PKi) [3]: 2.17% | % of CAG foci positive nuclei (Vehicle) [3]: 1.23%

AGATGGAGGGCCTTTTATTCGC (guide RNA; chemistry not fully specified) [SluD99]
% of CUG foci free nuclei (DNA-PKi) [1]: 22.16% | % of CUG foci free nuclei (Vehicle) [1]: 22.87% | Indel efficiency [2]: 1% | % of CAG foci positive nuclei (DNA-PKi) [3]: 2.23% | % of CAG foci positive nuclei (Vehicle) [3]: 0.73%

CAGGCTGAGGCCCTGACGTGGA (guide RNA; chemistry not fully specified) [SluD07]
% of CUG foci free nuclei (DNA-PKi) [1]: 29.79% | % of CUG foci free nuclei (Vehicle) [1]: 12.52% | Indel efficiency [2]: 28% | % of CAG foci positive nuclei (DNA-PKi) [3]: 0.82% | % of CAG foci positive nuclei (Vehicle) [3]: 2.37%

GTCCAGAGCTTTGGGCAGATGG (listed as DNA, chemistry not fully specified) [SluD100]
% of CUG foci free nuclei (DNA-PKi) [1]: 37.39% | % of CUG foci free nuclei (Vehicle) [1]: 22.06% | Indel efficiency [2]: 81% | indel efficiency (Sanger sequencing and ICE analysis) [2]: high editing IN4DEL efficiency | % of CAG foci positive nuclei (DNA-PKi) [3]: 3.35% | % of CAG foci positive nuclei (Vehicle) [3]: 2.15%

GCCCCAGCCGGCTCCGCCCGCT (guide RNA; chemistry not fully specified) [SluD55]
% of CUG foci free nuclei (DNA-PKi) [1]: 34.69% | % of CUG foci free nuclei (Vehicle) [1]: 15.71% | Indel efficiency [2]: 41% | % of CAG foci positive nuclei (DNA-PKi) [3]: 2.92% | % of CAG foci positive nuclei (Vehicle) [3]: 3.01%

TGTGATCCGGGCCCGCCCCCTA (guide RNA; chemistry not fully specified) [SluU33]
% of CUG foci free nuclei (DNA-PKi) [1]: 57.35% | % of CUG foci free nuclei (Vehicle) [1]: 24.67% | Indel efficiency [2]: 26% | % of CAG foci positive nuclei (DNA-PKi) [3]: 1.3% | % of CAG foci positive nuclei (Vehicle) [3]: 1.14%

TGTCTTCGACTCCGGGGCCCCG (listed as DNA, chemistry not fully specified) [SluU06]
% of CUG foci free nuclei (DNA-PKi) [1]: 67.15% | % of CUG foci free nuclei (Vehicle) [1]: 25.49% | Indel efficiency [2]: 81% | indel efficiency (Sanger sequencing and ICE analysis) [2]: high editing IN4DEL efficiency | % of CAG foci positive nuclei (DNA-PKi) [3]: 1.1% | % of CAG foci positive nuclei (Vehicle) [3]: 1.01%

CTTTTGCCAAACCCGCTTTTTC (guide RNA; chemistry not fully specified) [SluD41]
% of CUG foci free nuclei (DNA-PKi) [1]: 37.15% | % of CUG foci free nuclei (Vehicle) [1]: 8.97% | Indel efficiency [2]: 6% | % of CAG foci positive nuclei (DNA-PKi) [3]: 1.44% | % of CAG foci positive nuclei (Vehicle) [3]: 1.33%

CTTTGCGAACCAACGATAGGTG (guide RNA; chemistry not fully specified) [SluD25]
% of CUG foci free nuclei (DNA-PKi) [1]: 32.03% | % of CUG foci free nuclei (Vehicle) [1]: 26.87% | Indel efficiency [2]: 41% | % of CAG foci positive nuclei (DNA-PKi) [3]: 1.35% | % of CAG foci positive nuclei (Vehicle) [3]: 2.62%

TGGAGGATGGAACACGGACGGC (listed as DNA, chemistry not fully specified) [SluD18]
% of CUG foci free nuclei (DNA-PKi) [1]: 31.47% | % of CUG foci free nuclei (Vehicle) [1]: 15.38% | Indel efficiency [2]: 75% | indel efficiency (Sanger sequencing and ICE analysis) [2]: high editing IN4DEL efficiency | % of CAG foci positive nuclei (DNA-PKi) [3]: 1.55% | % of CAG foci positive nuclei (Vehicle) [3]: 2.71%

CCACGCTCGGAGCGGTTGTGAA (guide RNA; chemistry not fully specified) [SluU24]
% of CUG foci free nuclei (DNA-PKi) [1]: 50.23% | % of CUG foci free nuclei (Vehicle) [1]: 20.62% | Indel efficiency [2]: 28% | % of CAG foci positive nuclei (DNA-PKi) [3]: 1.56% | % of CAG foci positive nuclei (Vehicle) [3]: 1%

GGGCGCGGGATCCCCGAAAAAG (guide RNA; chemistry not fully specified) [SluD43]
% of CUG foci free nuclei (DNA-PKi) [1]: 20.27% | % of CUG foci free nuclei (Vehicle) [1]: 6.41% | Indel efficiency [2]: 1% | % of CAG foci positive nuclei (DNA-PKi) [3]: 0.82% | % of CAG foci positive nuclei (Vehicle) [3]: 1.31%

GGTCCTGTAGCCTGTCAGCGAG (guide RNA; chemistry not fully specified) [SluD69]
% of CUG foci free nuclei (DNA-PKi) [1]: 27.98% | % of CUG foci free nuclei (Vehicle) [1]: 10.88% | Indel efficiency [2]: 14% | % of CAG foci positive nuclei (DNA-PKi) [3]: 2.13% | % of CAG foci positive nuclei (Vehicle) [3]: 1.3%

TCGGCCAGGCTGAGGCCCTGAC (guide RNA; chemistry not fully specified) [SluD05]
% of CUG foci free nuclei (DNA-PKi) [1]: 26.99% | % of CUG foci free nuclei (Vehicle) [1]: 26.95% | Indel efficiency [2]: 22% | % of CAG foci positive nuclei (DNA-PKi) [3]: 1.1% | % of CAG foci positive nuclei (Vehicle) [3]: 1.42%

ATTTCTTTCTTTCGGCCAGGCT (guide RNA; chemistry not fully specified) [SluD03]
% of CUG foci free nuclei (DNA-PKi) [1]: 49.43% | % of CUG foci free nuclei (Vehicle) [1]: 14.38% | Indel efficiency [2]: 2% | % of CAG foci positive nuclei (DNA-PKi) [3]: 2.14% | % of CAG foci positive nuclei (Vehicle) [3]: 1.19%

TTTGCACTTTGCGAACCAACGA (guide RNA; chemistry not fully specified) [SluD29]
% of CUG foci free nuclei (DNA-PKi) [1]: 28.37% | % of CUG foci free nuclei (Vehicle) [1]: 7.97% | Indel efficiency [2]: 35% | % of CAG foci positive nuclei (DNA-PKi) [3]: 2.38% | % of CAG foci positive nuclei (Vehicle) [3]: 1.72%
